Reference: PMC8850458, “The AUTOTAC chemical biology platform for targeted protein degradation via the autophagy-lysosome system” (Nature Communications, 2022)
“And” between values parts separate entries of the source, which are not always exact repeats. Equal values may be shown once.

Legend:
[1] = PK parameters in ICR mice; assay type: in vivo; details: single injection
[2] = target: T1, tau oligomers (htauP301L-BiFC bodies) and phosphorylated tau-BiFC (Homo sapiens, UniProt P10636, P618L); experiment: Immunohistochemistry of BiFC and AT8 fluorescence in brains of hTauP301L-BiFC mice; assay type: in vivo; details: Fig. 6k; for Sudan black B (BiFC fluorescence) CA1, per animal: control AVG 32.0843; for Sudan black B (BiFC fluorescence) Cortex, per animal: control AVG 98.7415
T1 construct: from tissue; host or cells: brain of 9-month-old hTauP301L-BiFC transgenic mice (C57BL/6)
Description: To evaluate the effect of PBA-1105 on tau aggregation in vivo, PBA-1105 was intraperitoneally administered to 9-month-old TauP301L-mice (n = 7 per group) with 20 or 50 mg/kg dosage. PBS containing 30% polyethylene glycol (PEG) was used as a vehicle. Twelve total administrations were performed for 4 weeks, three times a week.
Mice were anesthetized by intraperitoneal injection of 2% avertin (2,2,2-Tribromoethanol). Mice were then perfused with 0.9% saline. Brains were rapidly extracted and fixed with PBS containing 4% paraformaldehyde for 48 hr. For, cryprotection, the brains were infiltrated with PBS containing 30% sucrose at 4 °C until they sunk. For cryosectioning, the brains were embedded with O.C.T (Leica, Germany) and serially cut in the coronal plane into 30-μm thick sections on a cryostat microtome (Leica). Tissue slices were transferred to PBS containing 0.05% sodium azide as a preservative and stored at 4 °C.
To reduce autofluorescence of brain tissues, Sudan Black B stain was performed. Brain tissue slices were mounted onto glass slides and were stained with Sudan Black B solution (70 % ethanol containing 0.05% Sudan Black B) for 10 min. Then, to eliminate the excessive stain, the slides were dipped in PBS containing 0.1% Triton X-100 three times and washed with distilled water after. For nuclei counter-stain, brain tissues were stained with 0.5 μg/mL Hoechst in distilled water for 30 min. BiFC fluorescence (λex = 460−490 nm and λem = 500−550 nm) of brain slices were imaged using ZEISS® Axio Scan.Z1 (Zeiss, Germany). Fluorescence and total area of each puncta were measured using ImageJ (NIH, Bethesda).

androgen receptor (AR) = target: T2, androgen receptor (AR) (Homo sapiens, UniProt P10275, T878A); experiment: Western blot degradation of AR in LNCaP cells; assay type: cell-based; details: for DC50: LNCaP prostate cancer cells; for AR normalized to control, AVG % / AR normalized to GAPDH and to control, percentage: LncaP; for AR normalized to GAPDH and to control, percentage: single experiments, listed as Vinclo.-2204
T2 construct: Targeted autophagic degradation of endogenous oncoproteins by AUTOTAC; endogenous in cells; host or cells: LNCaP
T2 sequence (P10275 1-920 T878A): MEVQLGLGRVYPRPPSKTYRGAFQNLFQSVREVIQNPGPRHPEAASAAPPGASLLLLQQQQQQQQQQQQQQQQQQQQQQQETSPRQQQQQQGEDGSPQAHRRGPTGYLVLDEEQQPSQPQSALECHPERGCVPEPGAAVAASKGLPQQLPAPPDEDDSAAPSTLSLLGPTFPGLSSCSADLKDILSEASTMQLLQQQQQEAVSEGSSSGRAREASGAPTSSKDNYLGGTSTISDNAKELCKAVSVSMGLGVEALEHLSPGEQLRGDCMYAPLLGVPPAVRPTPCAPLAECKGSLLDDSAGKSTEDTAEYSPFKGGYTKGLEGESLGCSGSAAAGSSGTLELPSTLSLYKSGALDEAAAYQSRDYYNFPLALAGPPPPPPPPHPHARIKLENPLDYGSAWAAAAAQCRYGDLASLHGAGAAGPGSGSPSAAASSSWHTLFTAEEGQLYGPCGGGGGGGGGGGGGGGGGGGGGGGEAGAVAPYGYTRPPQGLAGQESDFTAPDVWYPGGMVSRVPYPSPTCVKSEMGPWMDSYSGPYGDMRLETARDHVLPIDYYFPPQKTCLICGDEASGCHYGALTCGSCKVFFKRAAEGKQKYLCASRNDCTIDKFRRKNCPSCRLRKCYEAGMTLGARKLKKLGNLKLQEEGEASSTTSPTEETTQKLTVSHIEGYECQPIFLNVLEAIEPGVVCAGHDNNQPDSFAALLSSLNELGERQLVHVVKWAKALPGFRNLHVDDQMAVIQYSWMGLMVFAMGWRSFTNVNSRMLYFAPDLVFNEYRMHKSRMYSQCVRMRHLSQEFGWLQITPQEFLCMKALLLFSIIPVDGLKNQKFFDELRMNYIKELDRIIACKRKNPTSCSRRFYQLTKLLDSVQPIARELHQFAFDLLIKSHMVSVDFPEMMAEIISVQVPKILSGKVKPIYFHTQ
Description: Adherent cells were washed with phosphate-buffered saline (PBS) and cell pellets were lysed in SDS-based sample buffer (277.8 mM Tris-HCI, pH 6.8, 4.4% LDS, 44.4% (v/v) glycerol) containing beta-mercaptoethanol. Alternatively, cell pellets or protein supernatants were lysed in 5X Laemmli sample buffer. Whole-cell lysates were separated using SDS-PAGE, and transferred onto polyvinyllidene difluoride membranes at 100 V for 2 h at 4 °C. The membrane was incubated with a blocking solution consisting 4% skim milk in PBS solution for 30 min at room temperature and incubated with primary antibodies overnight, followed by incubation with host-specific HRP-conjugated secondary antibodies (1:10000 dilution). For signal detection, the membrane was developed with a mixture of ECL solution (Thermo Fisher Scientific) using X-ray films. Densitometry of developed bands was measured and analyzed with ImageJ (NIH, Bethesda).

T1 sequence (P10636 1-441 isoform P10636-8 P301L): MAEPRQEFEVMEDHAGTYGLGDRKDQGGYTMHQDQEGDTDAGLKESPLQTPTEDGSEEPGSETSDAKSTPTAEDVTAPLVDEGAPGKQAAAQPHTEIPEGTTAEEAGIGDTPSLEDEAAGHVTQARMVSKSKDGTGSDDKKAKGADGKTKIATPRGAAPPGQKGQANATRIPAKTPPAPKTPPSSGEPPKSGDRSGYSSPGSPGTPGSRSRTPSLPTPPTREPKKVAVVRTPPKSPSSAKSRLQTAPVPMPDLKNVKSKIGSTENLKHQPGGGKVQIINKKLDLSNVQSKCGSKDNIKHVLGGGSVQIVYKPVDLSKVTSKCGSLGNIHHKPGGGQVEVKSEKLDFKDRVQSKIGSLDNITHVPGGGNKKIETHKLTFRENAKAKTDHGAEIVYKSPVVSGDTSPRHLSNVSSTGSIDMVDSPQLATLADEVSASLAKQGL

O=C(CCCc1ccccc1)NCCOCCOCCOCCNCc1ccc(OCc2ccccc2)c(OCc2ccccc2)c1 [PBA-1105]
exposure [1]: good albeit rapidly metabolized exposure
Sudan black B AVG % CA1 ([2]; 20 mg/kg, control 100): 74.803%
Sudan black B AVG % Cortex ([2]; 20 mg/kg, control 100): 62.7215%
Sudan black B (BiFC fluorescence) CA1, per animal ([2]; 20 mg/kg): 19.17 and 25.62 and 30.19 and 23.53 and 13.28 and 12.8 and 43.41
Sudan black B (BiFC fluorescence) Cortex, per animal ([2]; 20 mg/kg): 48.97 and 40.445 and 49.503 and 29.786 and 68.378 and 118.96 and 77.483
Sudan black B AVG % Cortex ([2]; 50 mg/kg, control 100): 38.7498%
Sudan black B (BiFC fluorescence) CA1, per animal ([2]; 50 mg/kg): 28.22 and 22.5 and 36.39 and 26.84 and 28.79 and 49.66 and 49.74
Sudan black B (BiFC fluorescence) Cortex, per animal ([2]; 50 mg/kg): 22.584 and 15.381 and 25.562 and 21.978 and 66.624 and 61.234 and 54.472

C=CC(C)(O)C(=O)N(C(=O)NCCOCCOCCNCC(O)COc1ccc(OCCc2ccccc2)c(OCCc2ccccc2)c1)c1cc(Cl)cc(Cl)c1 (stereo not shown) [VinclozolinM2-2204]
DC50 (androgen receptor (AR)): ~200 nM
DC50 (androgen receptor (AR); listed as Vinclozolin-2204): 211 nM
AR normalized to control, AVG % (androgen receptor (AR); 10 nM): 98.914%
AR normalized to GAPDH and to control, percentage (androgen receptor (AR); 10 nM): 90.6238% and 111.624% and 94.4939%
AR normalized to control, AVG % (androgen receptor (AR); 50 nM): 121.781%
AR normalized to GAPDH and to control, percentage (androgen receptor (AR); 50 nM): 119.329% and 128.663% and 117.351%
AR normalized to control, AVG % (androgen receptor (AR); 100 nM): 60.0788%
AR normalized to GAPDH and to control, percentage (androgen receptor (AR); 100 nM): 61.0357% and 62.8026% and 56.3981%
AR normalized to control, AVG % (androgen receptor (AR); 0.5 uM): 19.2601%
AR normalized to GAPDH and to control, percentage (androgen receptor (AR); 0.5 uM): 14.6016% and 23.3958% and 19.7827%
AR normalized to control, AVG % (androgen receptor (AR); 1 uM): 23.6569%
AR normalized to control, AVG % (androgen receptor (AR); 2.5 uM): 22.3824%
AR normalized to control, AVG % (androgen receptor (AR); 10 uM): 6.006%
AR normalized to GAPDH and to control, percentage (androgen receptor (AR); 10 uM): 9.375% and 3.388% and 5.255%
